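Interpolation was linear, between the two tested concentrations surrounding the appropriate level; five concentrations were tested over 48 hours in 96-well plates. TGI is the concentration that stops growth completely.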
Legend:
Test in all cases: growth of human tumour cells (NCI), 48 h
[1] = test system: SNB-75 CNS
[2] = test system: HCC-2998 colon
[3] = test system: MCF7 breast
[4] = test system: MDA-MB-231 breast
[5] = test system: SK-OV-3 ovarian
[6] = test system: COLO 205 colon
[7] = test system: SNB-19 CNS
[8] = test system: HL-60(TB) leukemia
[9] = test system: A549 NSCLC
[10] = test system: M14 melanoma
[11] = test system: MALME-3M melanoma
[12] = test system: RPMI-8226 leukemia
[13] = test system: SK-MEL-2 melanoma
[14] = test system: NCI-H522 lung
[15] = test system: HOP-92 NSCLC
[16] = test system: SR leukemia
[17] = test system: OVCAR-3 ovarian
[18] = test system: OVCAR-5 ovarian
[19] = test system: NCI/ADR-RES ovarian
[20] = test system: NCI-H23 lung
[21] = test system: MDA-N
[22] = test system: SK-MEL-28 melanoma
[23] = test system: A498 renal
[24] = test system: SK-MEL-5 melanoma
[25] = test system: UO-31 renal
[26] = test system: NCI-H226 lung
[27] = test system: HCT-116 colon
[28] = test system: MOLT-4 leukemia
[29] = test system: SW-620 colon
[30] = test system: CCRF-CEM leukemia
[31] = test system: SN12C renal
[32] = test system: TK-10 renal
[33] = test system: NCI-H460 lung
[34] = test system: 786-0 renal
[35] = test system: CAKI-1 renal
[36] = test system: SF-539 CNS
[37] = test system: HCT-15 colon
[38] = test system: BT-549 breast
[39] = test system: K-562 leukemia
[40] = test system: MDA-MB-435
[41] = test system: UACC-257 melanoma
[42] = test system: SF-295 CNS
[43] = test system: OVCAR-8 ovarian
[44] = test system: RXF 393 renal
[45] = test system: HS 578T breast
[46] = test system: T-47D breast
[47] = test system: KM12 colon
[48] = test system: HT29 colon
[49] = test system: OVCAR-4 ovarian
[50] = test system: PC-3 prostate
[51] = test system: DU-145 prostate
[52] = test system: IGROV1 ovarian
[53] = test system: EKVX NSCLC
[54] = test system: UACC-62 melanoma
[55] = test system: HOP-62 NSCLC
[56] = test system: SF-268 CNS
[57] = test system: ACHN renal
[58] = test system: U251 CNS
[59] = test system: LOX IMVI melanoma

CCCOc1ccc(/C=C/C2=[N+](CCO)CCO2)cc1
TGI [1]: > 100 µM | TGI [2]: > 100 µM | TGI [3]: > 100 µM | TGI [4]: > 100 µM | TGI [5]: > 100 µM | TGI [6]: > 100 µM | TGI [7]: > 100 µM | TGI [8]: > 100 µM | TGI [9]: > 100 µM | TGI [10]: > 100 µM | TGI [11]: > 100 µM | TGI [12]: > 100 µM | TGI [13]: > 100 µM | TGI [14]: > 100 µM | TGI [15]: > 100 µM | TGI [16]: > 100 µM | TGI [17]: > 100 µM | TGI [18]: > 100 µM | TGI [19]: > 100 µM | TGI [20]: > 100 µM | TGI [21]: > 100 µM | TGI [22]: > 100 µM | TGI [23]: > 100 µM | TGI [24]: > 100 µM | TGI [25]: > 100 µM | TGI [26]: > 100 µM | TGI [27]: > 100 µM | TGI [28]: > 100 µM | TGI [29]: > 100 µM | TGI [30]: > 100 µM | TGI [31]: > 100 µM | TGI [32]: > 100 µM | TGI [33]: > 100 µM | TGI [34]: > 100 µM | TGI [35]: > 100 µM | TGI [36]: > 100 µM | TGI [37]: > 100 µM | TGI [38]: > 100 µM | TGI [39]: > 100 µM | TGI [40]: > 100 µM | TGI [41]: > 100 µM | TGI [42]: > 100 µM | TGI [43]: > 100 µM | TGI [44]: > 100 µM | TGI [45]: > 100 µM | TGI [46]: > 100 µM | TGI [47]: > 100 µM | TGI [48]: > 100 µM | TGI [49]: > 100 µM | TGI [50]: > 100 µM | TGI [51]: > 100 µM | TGI [52]: > 100 µM | TGI [53]: > 100 µM | TGI [54]: > 100 µM | TGI [55]: > 100 µM | TGI [56]: > 100 µM | TGI [57]: > 100 µM | TGI [58]: > 100 µM

C[N+]1(C)C2CCC1CC(OC(=O)C(CO)c1ccccc1)C2 (stereo not given)
TGI [1]: > 100 µM | TGI [3]: > 100 µM | TGI [4]: > 100 µM | TGI [5]: > 100 µM | TGI [6]: > 100 µM | TGI [7]: > 100 µM | TGI [9]: > 100 µM | TGI [10]: > 100 µM | TGI [11]: > 100 µM | TGI [12]: > 100 µM | TGI [13]: > 100 µM | TGI [14]: > 100 µM | TGI [16]: > 100 µM | TGI [17]: > 100 µM | TGI [18]: > 100 µM | TGI [19]: > 100 µM | TGI [20]: > 100 µM | TGI [21]: > 100 µM | TGI [22]: > 100 µM | TGI [23]: > 100 µM | TGI [24]: > 100 µM | TGI [25]: > 100 µM | TGI [26]: > 100 µM | TGI [27]: > 100 µM | TGI [28]: > 100 µM | TGI [29]: > 100 µM | TGI [30]: > 100 µM | TGI [31]: > 100 µM | TGI [32]: > 100 µM | TGI [34]: > 100 µM | TGI [35]: > 100 µM | TGI [59]: > 100 µM | TGI [36]: > 100 µM | TGI [37]: > 100 µM | TGI [38]: > 100 µM | TGI [39]: > 100 µM | TGI [40]: > 100 µM | TGI [41]: > 100 µM | TGI [42]: > 100 µM | TGI [43]: > 100 µM | TGI [44]: > 100 µM | TGI [45]: > 100 µM | TGI [46]: > 100 µM | TGI [47]: > 100 µM | TGI [48]: > 100 µM | TGI [49]: > 100 µM | TGI [50]: > 100 µM | TGI [51]: > 100 µM | TGI [52]: > 100 µM | TGI [53]: > 100 µM | TGI [54]: > 100 µM | TGI [55]: > 100 µM | TGI [56]: > 100 µM | TGI [57]: > 100 µM | TGI [58]: > 100 µM

COc1ccc(/C=c2/[nH]c(=O)/c(=C\c3ccc(OCc4ccccc4)cn3)[nH]c2=O)cc1
TGI [1]: 61 µM | TGI [2]: > 100 µM | TGI [3]: > 100 µM | TGI [4]: > 100 µM | TGI [5]: > 100 µM | TGI [6]: > 100 µM | TGI [7]: > 100 µM | TGI [8]: > 100 µM | TGI [9]: > 100 µM | TGI [10]: > 100 µM | TGI [11]: > 100 µM | TGI [13]: > 100 µM | TGI [14]: > 100 µM | TGI [15]: 80 µM | TGI [16]: > 100 µM | TGI [17]: > 100 µM | TGI [18]: > 100 µM | TGI [19]: > 100 µM | TGI [20]: > 100 µM | TGI [21]: > 100 µM | TGI [22]: > 100 µM | TGI [23]: > 100 µM | TGI [24]: > 100 µM | TGI [25]: > 100 µM | TGI [26]: > 100 µM | TGI [27]: > 100 µM | TGI [28]: > 100 µM | TGI [29]: > 100 µM | TGI [30]: > 100 µM | TGI [31]: > 100 µM | TGI [32]: > 100 µM | TGI [33]: > 100 µM | TGI [34]: > 100 µM | TGI [35]: > 100 µM | TGI [59]: > 100 µM | TGI [36]: > 100 µM | TGI [37]: > 100 µM | TGI [38]: > 100 µM | TGI [39]: > 100 µM | TGI [40]: > 100 µM | TGI [41]: > 100 µM | TGI [42]: > 100 µM | TGI [43]: > 100 µM | TGI [44]: 83.5 µM | TGI [45]: > 100 µM | TGI [46]: > 100 µM | TGI [47]: > 100 µM | TGI [48]: > 100 µM | TGI [49]: > 100 µM | TGI [50]: > 100 µM | TGI [51]: > 100 µM | TGI [53]: > 100 µM | TGI [54]: > 100 µM | TGI [55]: > 100 µM | TGI [56]: > 100 µM | TGI [57]: > 100 µM | TGI [58]: > 100 µM
